Data reported in ChEMBL document CHEMBL5154884, “Discovery of a Novel Src Homology-2 Domain Containing Protein Tyrosine Phosphatase-2 (SHP2) and Cyclin-Dependent Kinase 4 (CDK4) Dual Inhibitor for the Treatment of Triple-Negative Breast Cancer” (J Med Chem, 2022).
pIC50: −log10 of the molar value. Each block holds one compound with its values, some of them ahead of it.

Experiments:
[1] = target: T1, Tyrosine-protein phosphatase non-receptor type 11 (Homo sapiens, UniProt Q06124); assay: Inhibition of SHP2 (unknown origin) using DiFMUP as substrate incubated for 60 mins followed by substrate addition for 30 mins by microplate reader method
T1 sequence (Q06124 whole entry): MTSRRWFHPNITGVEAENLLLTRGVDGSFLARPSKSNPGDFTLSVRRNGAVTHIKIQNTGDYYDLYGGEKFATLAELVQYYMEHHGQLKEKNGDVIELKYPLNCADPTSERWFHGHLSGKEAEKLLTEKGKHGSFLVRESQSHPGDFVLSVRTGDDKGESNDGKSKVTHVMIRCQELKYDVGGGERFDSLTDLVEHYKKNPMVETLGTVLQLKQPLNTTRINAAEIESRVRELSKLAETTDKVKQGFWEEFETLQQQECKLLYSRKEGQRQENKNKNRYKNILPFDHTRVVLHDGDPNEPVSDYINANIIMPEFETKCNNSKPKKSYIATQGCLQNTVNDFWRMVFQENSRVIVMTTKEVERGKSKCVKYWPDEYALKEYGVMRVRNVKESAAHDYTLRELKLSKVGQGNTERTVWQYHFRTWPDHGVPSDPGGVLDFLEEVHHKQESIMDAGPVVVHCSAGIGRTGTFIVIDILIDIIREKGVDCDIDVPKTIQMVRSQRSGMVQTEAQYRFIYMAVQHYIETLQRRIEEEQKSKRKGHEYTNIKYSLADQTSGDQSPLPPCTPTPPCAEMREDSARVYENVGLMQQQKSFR

[2] = target: CDK4/Cyclin D3 (Homo sapiens, UniProt P11802); assay: Inhibition of recombinant N-terminal GST/His6-fusion tagged human CDK4/Cyclin D3 expressed in Sf9 insect cells using 5-FAM-IPTSPITTTYFFFKKK as substrate preincubated for 10 mins followed by substrate addition and incubated for 3 hrs in presence of ATP by caliper mobility shift analysis
Chain of CDK4/Cyclin D3 (P11802 whole entry, the tested form may be a part): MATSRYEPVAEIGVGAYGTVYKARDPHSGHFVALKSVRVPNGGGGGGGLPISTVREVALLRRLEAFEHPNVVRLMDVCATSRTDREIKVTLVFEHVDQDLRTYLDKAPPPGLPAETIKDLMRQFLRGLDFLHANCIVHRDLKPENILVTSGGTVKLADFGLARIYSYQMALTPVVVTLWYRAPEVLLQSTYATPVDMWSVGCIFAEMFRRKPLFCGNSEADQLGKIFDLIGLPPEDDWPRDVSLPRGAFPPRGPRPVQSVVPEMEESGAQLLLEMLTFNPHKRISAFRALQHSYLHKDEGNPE
Chain of CDK4/Cyclin D3 (P30281 whole entry, further chain, the tested form may be a part): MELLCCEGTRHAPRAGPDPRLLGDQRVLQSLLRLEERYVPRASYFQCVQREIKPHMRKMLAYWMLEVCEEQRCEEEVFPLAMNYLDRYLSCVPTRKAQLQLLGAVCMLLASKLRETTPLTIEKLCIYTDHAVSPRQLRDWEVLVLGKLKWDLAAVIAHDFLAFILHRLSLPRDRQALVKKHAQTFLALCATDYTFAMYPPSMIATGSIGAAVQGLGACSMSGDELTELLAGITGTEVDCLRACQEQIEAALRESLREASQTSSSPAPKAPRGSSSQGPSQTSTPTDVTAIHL

[3] = tested on: MDA-MB-468; assay: Antiproliferative activity against human MDA-MB-468 cells assessed as inhibition of cell growth incubated for 48 hrs by MTT assay; assay type: functional, cell-based
[4] = tested on: MDA-MB-231; assay: Antiproliferative activity against human MDA-MB-231 cells assessed as inhibition of cell growth incubated for 48 hrs by MTT assay; assay type: functional, cell-based
[5] = tested on: EMT6; assay: Antiproliferative activity against mouse EMT6 cells assessed as inhibition of cell growth incubated for 48 hrs by MTT assay; assay type: functional, cell-based
[6] = tested on: MDA-MB-231; assay: Induction of cell cycle arrest in human MDA-MB-231 cells assessed as accumulation of cells in G2/M phase at 3 uM incubated for 48 hrs by RNase/propidium iodide staining based flow cytometry analysis (reference value: 2.7%); assay type: functional
[7] = tested on: MDA-MB-231; assay: Induction of apoptosis in human MDA-MB-231 cells assessed as early apoptotic cells at 3 uM measured after 48 hrs by Annexin V-FITC/PI staining based flow cytometric analysis (reference value: 0.32%); assay type: functional
[8] = tested on: MDA-MB-231; assay: Induction of cell cycle arrest in human MDA-MB-231 cells assessed as accumulation of cells in G0/G1 phase at 3 uM incubated for 48 hrs by RNase/propidium iodide staining based flow cytometry analysis (reference value: 26.2%); assay type: functional
[9] = tested on: MDA-MB-231; assay: Induction of apoptosis in human MDA-MB-231 cells assessed as late apoptotic cells at 3 uM measured after 48 hrs by Annexin V-FITC/PI staining based flow cytometric analysis (reference value: 1.06%); assay type: functional
[10] = tested on: MDA-MB-231; assay: Induction of apoptosis in human MDA-MB-231 cells assessed as viable cells at 3 uM measured after 48 hrs by Annexin V-FITC/PI staining based flow cytometric analysis (reference value: 98.04%); assay type: functional; details: read-out: Activity
[11] = tested on: EMT6; assay: Antitumor activity against mouse EMT6 cells implanted in BALB/c mouse syngenic model assessed as tumor growth inhibition at 40 mg/kg, po qd and measured after 18 days relative to control; assay type: functional; details: EMT6, 432 h, time 18 day, read-out: TGI
[12] = tested on: MDA-MB-231; assay: Induction of apoptosis in human MDA-MB-231 cells assessed as necrotic cells at 3 uM measured after 48 hrs by Annexin V-FITC/PI staining based flow cytometric analysis (reference value: 0.58%); assay type: functional
[13] = tested on: MDA-MB-231; assay: Induction of cell cycle arrest in human MDA-MB-231 cells assessed as accumulation of cells in S phase at 3 uM incubated for 48 hrs by RNase/propidium iodide staining based flow cytometry analysis (reference value: […]); assay type: functional
[14] = tested on: EMT6; assay: Antitumor activity in mouse EMT6 cells implanted in BALB/c syngenic mouse model assessed as tumor growth inhibition at 40 mg/kg, po qd in presence of abemaciclib measured after 18 days relative to control; assay type: functional; details: EMT6, 432 h, time 18 day, read-out: TGI
[15] = tested on: MDA-MB-231; assay: Induction of cell cycle arrest in human MDA-MB-231 cells assessed as accumulation of cells in S phase at 3 uM incubated for 48 hrs in presence of abemaciclib by RNase/propidium iodide staining based flow cytometry analysis (reference value: […]); assay type: functional
[16] = tested on: MDA-MB-231; assay: Induction of apoptosis in human MDA-MB-231 cells assessed as early apoptotic cells at 3 uM incubated for 48 hrs in presence of abemaciclib by Annexin V-FITC/PI staining based flow cytometric analysis (reference value: 0.32%); assay type: functional
[17] = tested on: MDA-MB-231
[18] = tested on: EMT6
[19] = tested on: MDA-MB-231; assay: Induction of apoptosis in human MDA-MB-231 cells assessed as necrotic cells at 3 uM incubated for 48 hrs in presence of abemaciclib by Annexin V-FITC/PI staining based flow cytometric analysis (reference value: 0.58%); assay type: functional
[20] = tested on: MDA-MB-231; assay: Induction of cell cycle arrest in human MDA-MB-231 cells assessed as accumulation of cells in G2/M phase at 3 uM incubated for 48 hrs in presence of abemaciclib by RNase/propidium iodide staining based flow cytometry analysis (reference value: 2.7%); assay type: functional
[21] = tested on: MDA-MB-231; assay: Induction of apoptosis in human MDA-MB-231 cells assessed as late apoptotic cells at 3 uM incubated for 48 hrs in presence of abemaciclib by Annexin V-FITC/PI staining based flow cytometric analysis (reference value: 1.06%); assay type: functional
[22] = tested on: MDA-MB-231; assay: Induction of apoptosis in human MDA-MB-231 cells assessed as viable cells at 3 uM incubated for 48 hrs in presence of abemaciclib by Annexin V-FITC/PI staining based flow cytometric analysis (reference value: 98.04%); assay type: functional; details: read-out: Activity
[23] = tested on: MDA-MB-468
[24] = tested on: MDA-MB-231; assay: Induction of cell cycle arrest in human MDA-MB-231 cells assessed as accumulation of cells in G0/G1 phase at 3 uM incubated for 48 hrs in presence of abemaciclib by RNase/propidium iodide staining based flow cytometry analysis (reference value: 26.2%); assay type: functional

Compound: Cc1nc2c(F)cc(-c3nc(Nc4cccc(Sc5cnc(N6CCC7(CC6)CO[C@@H](C)[C@H]7N)cn5)c4Cl)ncc3F)cc2n1C(C)C
pIC50 [1]: 7.78
pIC50 [2]: 8.17
pIC50 ([3]; Homo sapiens, MDA-MB-468, 48 h): 5.04
pIC50 ([4]; Homo sapiens, MDA-MB-231, 48 h): 5.34
pIC50 ([5]; Mus musculus, EMT6, 48 h): 6.24

Compound: Cc1nc2c(F)cc(-c3nc(Nc4ccc(Sc5cnc(N6CCC7(CC6)CO[C@@H](C)[C@H]7N)cn5)c(Cl)n4)ncc3F)cc2n1C(C)C
pIC50 [2]: 6.86

Compound: Cc1nc2c(F)cc(-c3nc(Nc4cc(Sc5cnc(N6CCC7(CC6)CO[C@@H](C)[C@H]7N)cn5)ccn4)ncc3F)cc2n1C(C)C
pIC50 [1]: 7.33
pIC50 [2]: 7.79
pIC50 ([3]; Homo sapiens, MDA-MB-468, 48 h): 5.02
pIC50 ([4]; Homo sapiens, MDA-MB-231, 48 h): 5.29
pIC50 ([5]; Mus musculus, EMT6, 48 h): 5.96

Compound: CN(C)C(=O)c1cc2cnc(Nc3ccc(Sc4cnc(N5CCC(C)(N)CC5)cn4)c(Cl)n3)nc2n1C1CCCC1
pIC50 [2]: 7.29

Compound: Cc1nc2c(F)cc(-c3nc(Nc4ccc(Sc5cnc(N6CCC7(CC6)Cc6ccccc6[C@H]7N)cn5)c(Cl)n4)ncc3F)cc2n1C(C)C
pIC50 [1]: 6.17
pIC50 [2]: 6.35

Compound: CCN1CCN(Cc2ccc(Nc3ncc(F)c(-c4cc(F)c5nc(C)n(C(C)C)c5c4)n3)nc2)CC1 [ABEMACICLIB]
Activity [6]: 2.7%
Activity [7]: 5.86%
Activity [8]: 37.1%
Activity [9]: 6.73%
viability at 3 µM [10]: 86%
pIC50 ([3]; Homo sapiens, MDA-MB-468, 48 h): < 4.70
pIC50 ([4]; Homo sapiens, MDA-MB-231, 48 h): < 4.70
inhibition in vivo at 40 mg/kg [11]: 35%
Activity [12]: 1.42%
pIC50 ([5]; Mus musculus, EMT6, 48 h): 5.38
Activity [13]: 60.2%

Compound: Cc1nc2c(F)cc(-c3nc(Nc4nccc(Sc5cnc(N6CCC7(CC6)Cc6ccccc6[C@H]7N)cn5)c4Cl)ncc3F)cc2n1C(C)C
pIC50 [1]: 8.09
pIC50 [2]: 7.02
pIC50 ([3]; Homo sapiens, MDA-MB-468, 48 h): 5.41
pIC50 ([4]; Homo sapiens, MDA-MB-231, 48 h): 5.35
pIC50 ([5]; Mus musculus, EMT6, 48 h): 5.97

Compound: Cc1nc2c(F)cc(-c3nc(Nc4cc(Cl)c(Sc5cnc(N6CCC7(CC6)CO[C@@H](C)[C@H]7N)cn5)cn4)ncc3F)cc2n1C(C)C
pIC50 [2]: 8.06

Compound: CN(C)C(=O)c1cc2cnc(Nc3ccc(Sc4cnc(N5CCC(C)(N)CC5)cn4)cn3)nc2n1C1CCCC1
pIC50 [2]: 8.09

Compound: CN(C)C(=O)c1cc2cnc(Sc3cnc(N4CCC(C)(N)CC4)cn3)nc2n1C1CCCC1
pIC50 [1]: < 6.00
pIC50 [2]: < 6.00

Compound: C[C@@H]1OCC2(CCN(c3cnc(Sc4ccnc(N)c4Cl)c(N)n3)CC2)[C@@H]1N [BATOPROTAFIB]
Activity [6]: 2.6%
Activity [7]: 7.32%
Activity [8]: 40.7%
Activity [9]: 9.13%
inhibition in vivo at 40 mg/kg [14]: 74%
Activity [15]: 53.2%
Activity [16]: 8.17%
viability at 3 µM [10]: 82.5%
pIC50 ([3]; mda-mb-468): < 4.70
pIC50 ([4]; mda-mb-231): < 4.70
pIC50 [17]: 4.89
pIC50 [18]: 5.60
Activity [19]: 0.95%
inhibition in vivo at 40 mg/kg [11]: 60%
Activity [20]: 2%
Activity [12]: 1.07%
Activity [21]: 12.42%
pIC50 ([5]; emt6): 5.15
viability at 3 µM [22]: 78.5%
pIC50 [23]: 5.51
Activity [13]: 56.7%
Activity [24]: 44.8%

Compound: Cc1nc2c(F)cc(-c3nc(Nc4ccc(Sc5cnc(N6CCC7(CC6)CO[C@@H](C)[C@H]7N)cn5)c(Cl)c4)ncc3F)cc2n1C(C)C
pIC50 [2]: 8.15
pIC50 ([3]; Homo sapiens, MDA-MB-468, 48 h): 4.99
pIC50 ([4]; Homo sapiens, MDA-MB-231, 48 h): 5.49
pIC50 ([5]; Mus musculus, EMT6, 48 h): 5.78

Next, values leading:

pIC50 [1]: 8.49
pIC50 [2]: < 6.00
Compound: CN(C)C(=O)c1cc2cnc(Nc3nccc(Sc4cnc(N5CCC6(CC5)Cc5ccccc5[C@H]6N)cn4)c3Cl)nc2n1C1CCCC1

pIC50 [1]: 7.47
pIC50 [2]: 6.28
Compound: CN(C)C(=O)c1cc2cnc(Nc3ccc(Sc4cnc(N5CCC6(CC5)Cc5ccccc5[C@H]6N)cn4)c(Cl)n3)nc2n1C1CCCC1

pIC50 [1]: 6.69
pIC50 [2]: 8.04
Compound: Cc1nc2c(F)cc(-c3nc(Nc4cnc(Sc5cnc(N6CCC7(CC6)CO[C@@H](C)[C@H]7N)cn5)c(Cl)c4)ncc3F)cc2n1C(C)C

pIC50 [1]: 7.50
pIC50 [2]: 6.35
Compound: CN(C)C(=O)c1cc2cnc(Nc3nccc(Sc4cnc(N5CCC(C)(N)CC5)cn4)c3Cl)nc2n1C1CCCC1

pIC50 [2]: < 6.00
Compound: Cc1nc2c(F)cc(-c3nc(Nc4cc(Sc5cnc(N6CCC7(CC6)CO[C@@H](C)[C@H]7N)cn5)c(Cl)cn4)ncc3F)cc2n1C(C)C

pIC50 [1]: 6.21
pIC50 [2]: 6.67
Compound: Cc1nc2c(F)cc(-c3nc(Nc4ccc(Cl)c(Sc5cnc(N6CCC7(CC6)CO[C@@H](C)[C@H]7N)cn5)n4)ncc3F)cc2n1C(C)C

pIC50 [1]: 7.28
pIC50 [2]: < 6.00
Compound: CN(C)C(=O)c1cc2cnc(Nc3ccc(Sc4cnc(N5CCC6(CC5)Cc5ccccc5[C@H]6N)cn4)c(Cl)c3)nc2n1C1CCCC1
